Test results as given in patent US4005213A, “2,5-Substituted-1,3,4-thiadiazoles as fungicides” (Schering Aktiengesellschaft, priority 1968, dated 1977).

Columns and labels:
Pythium ultimum [1] = assay: Limit concentration of soil-fungicidal effectiveness, Pythium ultimum infested soil, peas (Example 1); format: in vivo; details: 20 to 23 days, 22°-25° C., germination at least 90% vs steamed soil; for minimal effective concentration: Globisporangium ultimum
Method: Limit concentrations of the soil-fungicidal effectiveness at homogeneous mixture of the products with the infested soil. Basic condition in the evaluation are a sound root formation without fungus necroses and germination of the seed of at least 90% compared with the result obtained in steamed soil. Per concentration there were seeded 25 grains of peas of the variety "Miracle of Kelvedon" (marrow pea) without a waiting period. the cultivation time in the tests was 20 to 23 days at a temperature of 22°-25° C. Four commercial products were included in the test series.
Pythium ultimum: Steamed compost soil was inoculated with mycelium of Pythium ultimum

Stemphylium ilicis = assay: Agar test, Stemphylium ilicis (Example 7); format: cell-based; details: 10 ppm in malt extract agar, 5 days at 22° C.; control 100
Method: (§1) The fungicidal action of the agents according to the invention was tested in artificial nutrient media against plant-pathogenic fungi in Petri dishes (agar test). The procedure was to sterilize the medium consisting of 2% malt extract and 1.5% agar-agar powder. Before the solidification of the medium, the active substances were added to it, mixing thoroughly, so that the medium received 10 parts of active substance per million (ppm). After the solidification of the medium, the latter was inoculated with a platinum dropper which contained 100 spores each of the fungi to be tested, and after 5 days at 22° C., an evaluation was made by measuring the diameter of the colonies in mm.

Aspergillus niger = assay: Agar test, Aspergillus niger (Example 7); format: cell-based; details: 10 ppm in malt extract agar, 5 days at 22° C.; control 100
Method: as §1

Rhizoctonia solani = assay: Pea test in soil inoculated with Rhizoctonia solani (Example 3); format: in vivo; details: for Root evaluation (1-4): 3 weeks; for Number of sound peas after 3 wks.: 25 grains seeded
From the text: Steamed compost soil was inoculated with mycelium of Rhizoctonia solani. After homogeneous mixture of the products with the infested soil, the products were present in the form of 20% powder preparations, the seeding of 25 grains of marrow peas of the variety Miracle of Kelvedon per concentration was effected without waiting period in clay dishes holding 1 liter of soil. The table lists the number of germinated sound peas, the weight of the fresh plant, and a root evaluation after a cultivation period of 3 weeks at 22°-25° C.

Pythium ultimum [2] = assay: Pea test in soil inoculated with Pythium ultimum (Example 2); format: in vivo; set-up: key to Root evaluation (1-4): 4 = white roots, no necroses … 1 = severe necroses, roots rotted; details: for Root evaluation (1-4): 3 weeks
Method: Steamed compost soil was inoculated with mycelium of Pythium ultimum. […] The following table lists the number of germinated sound peas, the weight of the fresh plant, and a root evaluation after a cultivation period of 3 weeks at 22°-25° C.
4 = white roots, without fungus necroses
3 = white roots, slight fungus necroses
2 = brown roots, more intense fungus necroses
1 = severe fungus necroses, roots rotted

[3] = 50 mg active ingr. per liter of soil
[4] = 100 mg active ingr. per liter of soil
[5] = 10 mg active ingr. per liter of soil
[6] = 20 mg active ingr. per liter of soil
[7] = 30 mg active ingr. per liter of soil

| Structure (SMILES) | minimal effective concentration (Pythium ultimum [1]) [µg/mL] | further results |
| --- | --- | --- |
| CC(C)S(=O)(=O)c1nnc(C(F)(F)F)s1 [Compound 41, 2-trifluoromethyl-5-isopropylsulfonyl-1,3,4-thiadiazole] | 10 |  |
| CC(C)[S+]([O-])c1nnc(C(Cl)Cl)s1 (stereo not shown) [Compound 6, 2-dichloromethyl-5-isopropylsulfinyl-1,3,4-thiadiazole] | > 200 |  |
| CC(C)S(=O)(=O)c1nnc(CCl)s1 [Compound 16, 2-chloromethyl-5-isopropylsulfonyl-1,3,4-thiadiazole] | 150 |  |
| CC(C)C[S+]([O-])c1nnc(C(F)(F)F)s1 (stereo not shown) [Compound 37, 2-trifluoromethyl-5-isobutylsulfinyl-1,3,4-thiadiazole] | 30 |  |
| CCCCCCC[S+]([O-])c1nnc(C(Cl)(Cl)Cl)s1 (stereo not shown) [Compound 13, 2-trichloromethyl-5-heptylsulfinyl-1,3,4-thiadiazole] | > 200 | diameter of the colonies, Stemphylium ilicis (Stemphylium ilicis): 0 mm; diameter of the colonies, Aspergillus niger (Aspergillus niger): 0 mm |
| CC(C)[S+]([O-])c1nnc(C(Cl)(Cl)Cl)s1 (stereo not shown) [Compound 11, 2-trichloromethyl-5-isopropylsulfinyl-1,3,4-thiadiazole] | > 200 |  |
| CC(C)S(=O)(=O)c1nnc(C(Cl)(Cl)Cl)s1 [Compound 24, 2-trichloromethyl-5-isopropylsulfonyl-1,3,4-thiadiazole] | 150 | diameter of the colonies, Stemphylium ilicis (Stemphylium ilicis): 0 mm; diameter of the colonies, Aspergillus niger (Aspergillus niger): 0 mm |
| CCCCCCS(=O)(=O)c1nnc(C(F)(F)F)s1 [Compound 43, 2-trifluoromethyl-5-hexylsulfonyl-1,3,4-thiadiazole] | > 100 |  |
| CCCCCCCS(=O)(=O)c1nnc(C(F)(F)F)s1 [Compound 44, 2-trifluoromethyl-5-heptylsulfonyl-1,3,4-thiadiazole] | > 100 |  |
| CCCC[S+]([O-])c1nnc(C(Cl)(Cl)Cl)s1 (stereo not shown) [Compound 12, 2-trichloromethyl-5-butylsulfinyl-1,3,4-thiadiazole] | 200 | diameter of the colonies, Stemphylium ilicis (Stemphylium ilicis): 0 mm; diameter of the colonies, Aspergillus niger (Aspergillus niger): 0 mm |
| CS(=O)(=O)c1nnc(CF)s1 [Compound 34, 2-fluoromethyl-5-methylsulfonyl-1,3,4-thiadiazole] | 50 |  |
| CCCCS(=O)(=O)c1nnc(C(Cl)(Cl)Cl)s1 [Compound 25, 2-trichloromethyl-5-butylsulfonyl-1,3,4-thiadiazole] | > 200 | diameter of the colonies, Stemphylium ilicis (Stemphylium ilicis): 0 mm; diameter of the colonies, Aspergillus niger (Aspergillus niger): 0 mm |
| O=[N+]([O-])c1c(Cl)c(Cl)c(Cl)c(Cl)c1Cl [Pentachloronitrobenzene, reference compound] |  | Root evaluation (1-4) (Rhizoctonia solani; [3]): 1; Number of sound peas after 3 wks. (Rhizoctonia solani; [3]): 4; Root evaluation (1-4) (Rhizoctonia solani; [4]): 4; Number of sound peas after 3 wks. (Rhizoctonia solani; [4]): 25 |
| CC(Br)c1nnc(S(C)(=O)=O)s1 (stereo not shown) [Compound 50, 2-(1-bromethyl)-5-methylsulfonyl-1,3,4-thiadiazole] | 40 |  |
| CCCCCCCCS(=O)(=O)c1nnc(C(Cl)(Cl)Cl)s1 [Compound 29, 2-trichloromethyl-5-octylsulfonyl-1,3,4-thiadiazole] | > 200 | diameter of the colonies, Stemphylium ilicis (Stemphylium ilicis): 0 mm; diameter of the colonies, Aspergillus niger (Aspergillus niger): 19 mm |
| CC(C)CC(Br)c1nnc(S(C)(=O)=O)s1 (stereo not shown) [Compound 53, 2-(1-bromisopentyl)-5-methylsulfonyl-1,3,4-thiadiazole] |  | Limit concentration of fungicidal effectiveness, Pythium ultimum (Pythium ultimum [1]): no effect |
| CCCCCCS(=O)(=O)c1nnc(C(Cl)(Cl)Cl)s1 [Compound 27, 2-trichloromethyl-5-hexylsulfonyl-1,3,4-thiadiazole] | > 200 | diameter of the colonies, Stemphylium ilicis (Stemphylium ilicis): 0 mm; diameter of the colonies, Aspergillus niger (Aspergillus niger): 0 mm |
| CCC[S+]([O-])c1nnc(C(Cl)(Cl)Cl)s1 (stereo not shown) [Compound 10, 2-trichloromethyl-5-propylsulfinyl-1,3,4-thiadiazole] | 100 | diameter of the colonies, Stemphylium ilicis (Stemphylium ilicis): 0 mm; diameter of the colonies, Aspergillus niger (Aspergillus niger): 0 mm |
| CCC(Cl)c1nnc(S(C)(=O)=O)s1 (stereo not shown) [Compound 49, 2-(1-chloropropyl)-5-methylsulfonyl-1,3,4-thiadiazole] | 100 |  |

| Structure (SMILES) | minimal effective concentration (Pythium ultimum [1]) [µg/mL] | further results |
| --- | --- | --- |
| CC(Cl)(Cl)c1nnc(S(C)(=O)=O)s1 [Compound 47, 2-(1,1-dichloroethyl)-5-methylsulfonyl-1,3,4-thiadiazole] | 80 |  |
| CC(C)S(=O)(=O)c1nnc(C(Cl)Cl)s1 [Compound 20, 2-dochloromethyl-5-isopropylsulfonyl-1,3,4-thiadiazole] | 200 |  |
| CC(C)C(Br)c1nnc(S(C)(=O)=O)s1 (stereo not shown) [Compound 51, 2-(1-bromisobutyl)-5-methylsulfonyl-1,3,4-thiadiazole] | > 100 |  |
| CCCCC[S+]([O-])c1nnc(C(Cl)Cl)s1 (stereo not shown) [Compound 7, 2-dichloromethyl-5-amylsulfinyl 1,3,4-thiadiazole] | > 200 | diameter of the colonies, Stemphylium ilicis (Stemphylium ilicis): 0 mm; diameter of the colonies, Aspergillus niger (Aspergillus niger): 0 mm |
| CCS(=O)(=O)c1nnc(C(Cl)(Cl)Cl)s1 [Compound 22, 2-trichloromethyl-5-ethylsulfonyl-1,3,4-thiadiazole] | 50 | diameter of the colonies, Stemphylium ilicis (Stemphylium ilicis): 0 mm; diameter of the colonies, Aspergillus niger (Aspergillus niger): 0 mm |
| C[S+]([O-])c1nnc(CF)s1 (stereo not shown) [Compound 33, 2-fluoromethyl-5-methylsulfinyl-1,3,4-thiadiazole] | 50 |  |
| CC(C)CS(=O)(=O)c1nnc(C(F)(F)F)s1 [Compound 42, 2-trifluoromethyl-5-isobutylsulfonyl-1,3,4-thiadiazole] | 20 |  |
| C[S+]([O-])c1nnc(CCl)s1 (stereo not shown) [Compound 2, 2-chloromethyl-5-methylsulfinyl-1,3,4-thiadiazole] | 30 |  |
| CS(=O)(=O)c1nnc(CCl)s1 [Compound 15, 2-chloromethyl-5-methylsulfonyl-1,3,4-thiadiazole] | 10 | Root evaluation (1-4) (Pythium ultimum [2]; [5]): 4; Root evaluation (1-4) (Pythium ultimum [2]; [6]): 4; Root evaluation (1-4) (Pythium ultimum [2]; [7]): 4 |
| CCCCC(Br)c1nnc(S(C)(=O)=O)s1 (stereo not shown) [Compound 52, 2-(1-bromopentyl)-5-methylsulfonyl-1,3,4-thiadiazole] |  | Limit concentration of fungicidal effectiveness, Pythium ultimum (Pythium ultimum [1]): no effect |
| CCCCCS(=O)(=O)c1nnc(C(Cl)(Cl)Cl)s1 [Compound 26, 2-trichloromethyl-5-amylsulfonyl-1,3,4-thiadiazole] | > 200 | diameter of the colonies, Stemphylium ilicis (Stemphylium ilicis): 0 mm; diameter of the colonies, Aspergillus niger (Aspergillus niger): 0 mm |
| CCS(=O)(=O)c1nnc(CBr)s1 [Compound 31, 2-bromomethyl-5-ethylsulfonyl-1,3,4-thiadiazole] | 50 |  |
| CCCCCC[S+]([O-])c1nnc(C(F)(F)F)s1 (stereo not shown) [Compound 39, 2-trifluoromethyl-5-hexylsulfinyl-1,3,4-thiadiazole] | 100 |  |
| CCC(Cl)c1nnc([S+](C)[O-])s1 (stereo not shown) [Compound 48, 2-(1-chloropropyl)-5-methylsulfinyl-1,3,4-thiadiazole] | > 100 |  |
| CS(=O)(=O)c1nnc(C(F)(F)C(F)(F)F)s1 [Compound 45, 2-pentafluoroethyl-5-methylsulfonyl-1,3,4-thiadiazole] | 100 |  |
| CS(=O)(=O)c1nnc(CBr)s1 [Compound 30, 2-bromomethyl-5-methylsulfonyl-1,3,4-thiadiazole] | 20 | Root evaluation (1-4) (Pythium ultimum [2]; [5]): 1; Number of sound peas after 3 wks. (Pythium ultimum [2]; 10 mg active ingr. per liter of soil, 25 grains seeded): 21; Root evaluation (1-4) (Pythium ultimum [2]; [6]): 4; Root evaluation (1-4) (Pythium ultimum [2]; [7]): 4 |
| CCCCCCCS(=O)(=O)c1nnc(C(Cl)(Cl)Cl)s1 [Compound 28, 2-trichloromethyl-5-heptysulfonyl-1,3,4-thiadiazole] | > 200 | diameter of the colonies, Stemphylium ilicis (Stemphylium ilicis): 0 mm; diameter of the colonies, Aspergillus niger (Aspergillus niger): 0 mm |
| CCCCC[S+]([O-])c1nnc(C(F)(F)F)s1 (stereo not shown) [Compound 38, 2-trifluoromethyl-5-pentylsulfinyl-1,3,4-thiadiazole] | 100 |  |
| CCCCCCCC[S+]([O-])c1nnc(C(Cl)(Cl)Cl)s1 (stereo not shown) [Compound 14, 2-trichloromethyl-5-octylsulfinyl-1,3,4-thiadiazole] | > 200 |  |
